Experimental data reported in patent publication US12655116B2, “Substituted isophthalic acid diamides” (Bayer Aktiengesellschaft, priority 2020, dated 2026).

Columns and labels:
[1] = system: ECHCG; test: Post-emergence herbicidal action against ECHCG; type: in vivo, Echinochloa crus-galli; settings: Echinochloa crus-galli, 504 h
Summary of the method: (§1)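 Herbicidal action is a visual percentage rating (0% = as untreated control, 100% = plants dead) made roughly 3 weeks after treatment. Plants were grown in sandy loam in the greenhouse and treated at the one-leaf stage, 2 to 3 weeks post-sowing. Treatment was a foliar spray of wettable-powder or emulsion-concentrate formulations at 600 to 800 l/ha water plus 0.2% wetting agent.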

[2] = system: VIOTR; test: Pre-emergence herbicidal action against VIOTR; type: in vivo, Viola tricolor; settings: Viola tricolor, 504 h; for pest or weed control at 20 g/ha: dosage 20 g/ha; for pest or weed control at 80 g/ha: dosage 80 g/ha
Summary of the method: (§2)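 Sandy loam pots, seeds covered with soil, then surface-treated with WP or EC formulations at 600–800 l/ha water plus 0.2% wetting agent. Greenhouse, 3 weeks. Percent damage vs untreated controls.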

[3] = system: LOLRI; test: Pre-emergence herbicidal action against LOLRI; type: in vivo, Lolium rigidum; settings: Lolium rigidum, 504 h, 80 g/ha
Summary of the method: as §2

[4] = system: ECHCG; test: Pre-emergence herbicidal action against ECHCG; type: in vivo, Echinochloa crus-galli; settings: Echinochloa crus-galli, 504 h
Summary of the method: as §2

[5] = system: AMARE; test: Pre-emergence herbicidal action against AMARE; type: in vivo, Amaranthus retroflexus; settings: Amaranthus retroflexus, 504 h, scored visually after 3 weeks vs untreated controls, 100% = plants have died, 0% = like control plants
Summary of the method: as §2

[6] = system: POLCO; test: Pre-emergence herbicidal action against POLCO; type: in vivo, Polygonum convolvulus; settings: Fallopia convolvulus, 504 h; for pest or weed control at 80 g/ha: dosage 80 g/ha
Summary of the method: as §2

[7] = system: AMARE; test: Post-emergence herbicidal action against AMARE; type: in vivo, Amaranthus retroflexus; settings: Amaranthus retroflexus, 504 h, 20 g/ha, visual assessment about 3 weeks after treatment, 100% = plants have died, 0% = like control plants
Summary of the method: as §1

[8] = system: SETVI; test: Pre-emergence herbicidal action against SETVI; type: in vivo, Setaria viridis; settings: Setaria viridis, 504 h, dosage 80 g/ha
Summary of the method: as §2

[9] = system: SETVI; test: Post-emergence herbicidal action against SETVI; type: in vivo, Setaria viridis; settings: Setaria viridis, 504 h, dosage 20 g/ha
Summary of the method: as §1

[10] = system: ALOMY; test: Pre-emergence herbicidal action against ALOMY; type: in vivo, Alopecurus myosuroides; settings: Alopecurus myosuroides, 504 h, pre-emergence; for pest or weed control at 80 g/ha: scored visually after 3 weeks vs untreated controls (100% = plants have died, 0% = like control plants); for pest or weed control at 20 g/ha: scored visually after 3 weeks, 100% = plants have died, 0% = like control plants
Summary of the method: as §2

[11] = system: PHBPU; test: Pre-emergence herbicidal action against PHBPU; type: in vivo, Pharbitis purpurea; settings: Ipomoea purpurea, 504 h; for pest or weed control at 80 g/ha: dosage 80 g/ha
Summary of the method: as §2

[12] = system: DIGSA; test: Pre-emergence herbicidal action against DIGSA; type: in vivo, Digitaria sanguinalis; settings: Digitaria sanguinalis, 504 h; for pest or weed control at 20 g/ha: dosage 20 g/ha; for pest or weed control at 80 g/ha: dosage 80 g/ha
Summary of the method: as §2

[13] = system: ABUTH; test: Pre-emergence herbicidal action against ABUTH; type: in vivo, Abutilon theophrasti; settings: Abutilon theophrasti, 504 h; for pest or weed control at 80 g/ha: scored visually after 3 weeks vs untreated controls (100% = plants have died, 0% = like control plants); for pest or weed control at 20 g/ha: dosage 20 g/ha, scored visually after 3 weeks vs untreated controls, 100% = plants have died, 0% = like control plants, read-out: Pre-emergence action against ABUTH (herbicidal activity in percent)
Summary of the method: as §2

[14] = system: AVEFA; test: Pre-emergence herbicidal action against AVEFA; type: in vivo, Avena fatua; settings: Avena fatua, 504 h; 80 g/ha, pre-emergence
Summary of the method: as §2

[15] = system: AVEFA; test: Post-emergence herbicidal action against AVEFA; type: in vivo, Avena fatua; settings: Avena fatua, 504 h, 20 g/ha, visual assessment about 3 weeks after treatment, 100% = plants have died, 0% = like control plants
Summary of the method: as §1

[16] = system: MATIN; test: Pre-emergence herbicidal action against MATIN; type: in vivo, Matricaria inodora; settings: Tripleurospermum inodorum, 504 h; for pest or weed control at 20 g/ha: dosage 20 g/ha; for pest or weed control at 80 g/ha: dosage 80 g/ha
Summary of the method: as §2

[17] = system: MATIN; test: Post-emergence herbicidal action against MATIN; type: in vivo, Matricaria inodora; settings: Tripleurospermum inodorum, 504 h
Summary of the method: as §1

[18] = system: ALOMY; test: Post-emergence herbicidal action against ALOMY; type: in vivo, Alopecurus myosuroides; settings: Alopecurus myosuroides, 504 h, dosage 20 g/ha, visual assessment about 3 weeks after treatment vs untreated controls
Summary of the method: as §1

[19] = system: VERPE; test: Pre-emergence herbicidal action against VERPE; type: in vivo, Veronica persica; settings: Veronica persica, 504 h, dosage 80 g/ha
Summary of the method: as §2

[20] = system: PHBPU; test: Post-emergence herbicidal action against PHBPU; type: in vivo, Pharbitis purpurea; settings: Ipomoea purpurea, 504 h; for pest or weed control at 5 g/ha: dosage 5 g/ha; for pest or weed control at 20 g/ha: dosage 20 g/ha
Summary of the method: as §1

[21] = system: VIOTR; test: Post-emergence herbicidal action against VIOTR; type: in vivo, Viola tricolor; settings: Viola tricolor, 504 h
Summary of the method: as §1

[22] = system: ABUTH; test: Post-emergence herbicidal action against ABUTH; type: in vivo, Abutilon theophrasti; settings: Abutilon theophrasti, 504 h, visual assessment about 3 weeks after treatment vs untreated controls
Summary of the method: as §1

[23] = system: VERPE; test: Post-emergence herbicidal action against VERPE; type: in vivo, Veronica persica; settings: Veronica persica, 504 h, 20 g/ha
Summary of the method: as §1

[24] = system: DIGSA; test: Post-emergence herbicidal action against DIGSA; type: in vivo, Digitaria sanguinalis; settings: Digitaria sanguinalis, 504 h
Summary of the method: as §1

**Q.** With `CC(C)NC(=O)c1c(C(F)(F)F)ccc(C(=O)Nc2nnnn2C)c1Cl` [Example 1-137] as the molecule, how does the pest or weed control at 5 g/ha ([1]; dosage 5 g/ha) read?
**A.** 90%

**Q.** And the pest or weed control at 20 g/ha ([1]; dosage 20 g/ha)?
**A.** 90%

**Q.** What about the pest or weed control at 20 g/ha [2] of the same molecule?
**A.** 90%

**Q.** And the pest or weed control at 80 g/ha [2]?
**A.** 100%

**Q.** And the pest or weed control at 80 g/ha [3]?
**A.** 90%

**Q.** What about the pest or weed control at 20 g/ha [4] of the same molecule?
**A.** 80%

**Q.** And the pest or weed control at 80 g/ha [4]?
**A.** 100%

**Q.** What about the pest or weed control at 20 g/ha [5] of the same molecule?
**A.** 100%

**Q.** And the pest or weed control at 80 g/ha [5]?
**A.** 100%

**Q.** And the pest or weed control at 20 g/ha ([6]; dosage 20 g/ha)?
**A.** 80%

**Q.** What about the pest or weed control at 80 g/ha [6] of the same molecule?
**A.** 100%

**Q.** What about the pest or weed control at 20 g/ha [7] of the same molecule?
**A.** 90%

**Q.** What about the pest or weed control at 80 g/ha [8] of the same molecule?
**A.** 100%

**Q.** And the pest or weed control at 20 g/ha [9]?
**A.** 80%

**Q.** What about the pest or weed control at 80 g/ha [10] of the same molecule?
**A.** 90%

**Q.** And the pest or weed control at 20 g/ha [10]?
**A.** 90%

**Q.** And the pest or weed control at 20 g/ha ([11]; dosage 20 g/ha)?
**A.** 80%

**Q.** And the pest or weed control at 80 g/ha [11]?
**A.** 90%

**Q.** And the pest or weed control at 20 g/ha [12]?
**A.** 100%

**Q.** And the pest or weed control at 80 g/ha [12]?
**A.** 100%

**Q.** What about the pest or weed control at 80 g/ha [13] of the same molecule?
**A.** 100%

**Q.** And the pest or weed control at 20 g/ha [13]?
**A.** 100%

**Q.** What about the pest or weed control at 80 g/ha [14] of the same molecule?
**A.** 90%

**Q.** And the pest or weed control at 20 g/ha [15]?
**A.** 80%

**Q.** And the pest or weed control at 20 g/ha [16]?
**A.** 100%

**Q.** What about the pest or weed control at 80 g/ha [16] of the same molecule?
**A.** 100%

**Q.** And the pest or weed control at 5 g/ha ([17]; dosage 5 g/ha)?
**A.** 80%

**Q.** What about the pest or weed control at 20 g/ha ([17]; dosage 20 g/ha) of the same molecule?
**A.** 80%

**Q.** What about the pest or weed control at 20 g/ha [18] of the same molecule?
**A.** 90%

**Q.** And the pest or weed control at 80 g/ha [19]?
**A.** 90%

**Q.** And the pest or weed control at 5 g/ha [20]?
**A.** 80%

**Q.** And the pest or weed control at 20 g/ha [20]?
**A.** 80%

**Q.** For `Cn1nnnc1NC(=O)c1ccc(C(F)F)c(C(=O)NC2CC2)c1Br` [Example 1-227], which pest or weed control at 5 g/ha ([21]; 5 g/ha) is on record?
**A.** 100%

**Q.** And the pest or weed control at 20 g/ha ([21]; 20 g/ha)?
**A.** 100%

**Q.** And the pest or weed control at 20 g/ha [2]?
**A.** 100%

**Q.** And the pest or weed control at 80 g/ha [2]?
**A.** 100%

**Q.** What about the pest or weed control at 80 g/ha [3] of the same molecule?
**A.** 90%

**Q.** And the pest or weed control at 5 g/ha ([22]; dosage 5 g/ha)?
**A.** 100%

**Q.** What about the pest or weed control at 20 g/ha ([22]; dosage 20 g/ha) of the same molecule?
**A.** 100%

**Q.** What about the pest or weed control at 20 g/ha [4] of the same molecule?
**A.** 80%

**Q.** And the pest or weed control at 80 g/ha [4]?
**A.** 90%

**Q.** What about the pest or weed control at 20 g/ha [5] of the same molecule?
**A.** 100%

**Q.** What about the pest or weed control at 80 g/ha [5] of the same molecule?
**A.** 100%

**Q.** And the pest or weed control at 80 g/ha [6]?
**A.** 90%

**Q.** What about the pest or weed control at 20 g/ha [7] of the same molecule?
**A.** 100%

**Q.** And the pest or weed control at 80 g/ha [8]?
**A.** 100%

**Q.** And the pest or weed control at 80 g/ha [10]?
**A.** 100%

**Q.** And the pest or weed control at 20 g/ha [10]?
**A.** 80%

**Q.** And the pest or weed control at 80 g/ha [11]?
**A.** 80%

**Q.** What about the pest or weed control at 20 g/ha [12] of the same molecule?
**A.** 100%

**Q.** And the pest or weed control at 80 g/ha [12]?
**A.** 100%

**Q.** What about the pest or weed control at 80 g/ha [13] of the same molecule?
**A.** 100%

**Q.** What about the pest or weed control at 20 g/ha [13] of the same molecule?
**A.** 100%

**Q.** What about the pest or weed control at 80 g/ha [14] of the same molecule?
**A.** 90%

**Q.** And the pest or weed control at 20 g/ha [23]?
**A.** 80%

**Q.** And the pest or weed control at 20 g/ha [15]?
**A.** 80%

**Q.** What about the pest or weed control at 20 g/ha [16] of the same molecule?
**A.** 80%

**Q.** What about the pest or weed control at 80 g/ha [16] of the same molecule?
**A.** 100%

**Q.** What about the pest or weed control at 5 g/ha ([24]; 5 g/ha) of the same molecule?
**A.** 100%

**Q.** And the pest or weed control at 20 g/ha ([24]; 20 g/ha)?
**A.** 100%

**Q.** What about the pest or weed control at 80 g/ha [19] of the same molecule?
**A.** 100%

**Q.** What about the pest or weed control at 5 g/ha [20] of the same molecule?
**A.** 80%

**Q.** And the pest or weed control at 20 g/ha [20]?
**A.** 90%
